Measured values reported in ChEMBL document CHEMBL5512656, “Tetrazole derivatives in the management of neurological disorders: Recent advances on synthesis and pharmacological aspects” (Eur J Med Chem, 2024).

Experiments:
Rattus norvegicus [1] = test: Anticonvulsant activity in po dosed MES induced Albino rat seizure model measured after 4 hrs; assay type: functional
Rattus norvegicus [2] = test: Anticonvulsant activity in po dosed scPTZ induced Albino rat seizure model measured after 4 hrs; assay type: functional
Acetylcholinesterase [3] = biological target: T1, Acetylcholinesterase (Electrophorus electricus, UniProt O42275); test: Inhibition of electric eel AChE using acetylthiocholine iodide as substrate preincubated for 15 mins followed by substrate addition and measured after 30 mins by Ellman's method
Mus musculus [4] = test: Antidepressant activity in Kunming mouse assessed as reduction in duration of immobility time at 50 mg/kg, ip by forced swim test; assay type: functional
[5] = Inhibition of 5-HT uptake in HEK293 cells transfected with human SERT at 1 uM by liquid scintillation counting analysis; assay type: functional
[6] = Inhibition of NE uptake in HEK293 cells transfected with human NET at 1 uM by liquid scintillation counting analysis; assay type: functional
[7] = Inhibition of DA uptake in HEK293 cells transfected with human DAT at 1 uM by liquid scintillation counting analysis; assay type: functional
[8] = Inhibition of 5-HT uptake in HEK293 cells transfected with human SERT by liquid scintillation counting analysis; assay type: functional, cell-based
[9] = Inhibition of NE uptake in HEK293 cells transfected with human NET by liquid scintillation counting analysis; assay type: functional, cell-based
[10] = Inhibition of DA uptake in HEK293 cells transfected with human DAT by liquid scintillation counting analysis; assay type: functional, cell-based
[11] = Cytotoxicity against mouse NIH/3T3 cells incubated for 24 hrs by MTT assay
Mus musculus [12] = test: Anticonvulsant activity in ip dosed scPTZ induced Kunming mouse seizure model measured after 30 mins; assay type: functional; settings: 0.5 h
[13] = biological target: Acetylcholinesterase (Electrophorus electricus) (UniProt O42275); test: Inhibition of electric eel AChE using acetylthiocholine iodide as substrate preincubated for 15 mins followed by substrate addition and measured after 30 mins by Ellman's method relative to control; settings: time 45.0 min
Acetylcholinesterase [14] = biological target: T1, Acetylcholinesterase; test: Inhibition of electric eel AChE using acetylthiocholine iodide as substrate preincubated for 10 mins followed by substrate addition and measured after 15 mins by Ellman's method
Cholinesterase = Cholinesterase (Equus caballus, UniProt P81908); test: Inhibition of equine serum BChE using butyrylthiocholine chloride as substrate preincubated for 10 mins followed by substrate addition and measured after 15 mins by Ellman's method
Mus musculus [15] = test: Anticonvulsant activity in ip dosed MES induced mouse seizure model measured after 0.5 and 4 hrs; assay type: functional
[16] = Neurotoxicity in ip dosed mouse by rotarod test; assay type: toxicity, organism-based; settings: in vivo
Mus musculus [17] = test: Antidepressant activity in Kunming mouse assessed as reduction in duration of immobility time at 40 mg/kg, ip by forced swim test; assay type: functional
Mus musculus [18] = test: Antidepressant activity in Kunming mouse assessed as reduction in duration of immobility time at 30 mg/kg, ip by forced swim test; assay type: functional
Mus musculus [19] = test: Anticonvulsant activity in ip dosed scPTZ induced Kunming mouse seizure model measured for 30 mins; assay type: functional; settings: 0.5 h
Acetylcholinesterase [20] = biological target: T1, Acetylcholinesterase; test: Inhibition of electric eel AChE using acetylthiocholine iodide as substrate incubated for 30 mins by Ellman's method
Mus musculus [21] = test: Anticonvulsant activity in po dosed MES induced Kunming mouse seizure model; assay type: functional
Mus musculus [22] = test: Anticonvulsant activity in ip dosed MES induced Kunming mouse seizure model; assay type: functional
[23] = Neurotoxicity in ip dosed Kunming mouse after 15 mins by rotarod test; assay type: toxicity, organism-based; settings: in vivo
[24] = Protection index, ratio of TD50 for neurotoxicity in ip dosed Kunming mouse to ED50 for anticonvulsant activity in ip dosed Kunming mouse; assay type: toxicity, organism-based; settings: in vivo, read-out: PI
Mus musculus [25] = test: Anticonvulsant activity in ip dosed scPTZ induced Kunming mouse seizure model; assay type: functional
[26] = biological target: Cholinesterase (Equus caballus) (UniProt P81908); test: Inhibition of equine serum BChE using butyrylthiocholine iodide as substrate preincubated for 15 mins followed by substrate addition and measured after 30 mins by Ellman's method relative to control; settings: time 45.0 min
Mus musculus [27] = test: Anticonvulsant activity in ip dosed MES induced Kunming mouse seizure model measured after 0.5, 1, 2, and 4 hrs intervals; assay type: functional
[28] = Neurotoxicity in ip dosed Kunming mouse by rotarod test; assay type: toxicity, organism-based; settings: in vivo

T1 sequence (O42275 whole entry): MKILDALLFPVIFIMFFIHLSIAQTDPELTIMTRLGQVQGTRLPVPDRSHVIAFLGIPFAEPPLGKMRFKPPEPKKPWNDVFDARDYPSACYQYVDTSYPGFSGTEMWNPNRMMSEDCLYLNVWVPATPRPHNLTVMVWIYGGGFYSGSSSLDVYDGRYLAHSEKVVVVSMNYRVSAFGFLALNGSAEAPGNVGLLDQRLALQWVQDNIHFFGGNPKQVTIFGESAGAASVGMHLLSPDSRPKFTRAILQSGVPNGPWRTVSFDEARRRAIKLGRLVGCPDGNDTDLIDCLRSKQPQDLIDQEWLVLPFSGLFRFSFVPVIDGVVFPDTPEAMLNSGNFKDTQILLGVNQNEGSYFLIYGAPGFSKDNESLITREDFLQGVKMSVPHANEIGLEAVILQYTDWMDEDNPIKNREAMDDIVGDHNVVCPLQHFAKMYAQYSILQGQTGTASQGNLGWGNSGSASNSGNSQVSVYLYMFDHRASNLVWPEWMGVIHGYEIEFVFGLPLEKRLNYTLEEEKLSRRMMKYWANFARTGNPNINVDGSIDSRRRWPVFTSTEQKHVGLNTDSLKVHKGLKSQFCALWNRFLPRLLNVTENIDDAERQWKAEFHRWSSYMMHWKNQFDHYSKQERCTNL
Cholinesterase, sequence (P81908 whole entry): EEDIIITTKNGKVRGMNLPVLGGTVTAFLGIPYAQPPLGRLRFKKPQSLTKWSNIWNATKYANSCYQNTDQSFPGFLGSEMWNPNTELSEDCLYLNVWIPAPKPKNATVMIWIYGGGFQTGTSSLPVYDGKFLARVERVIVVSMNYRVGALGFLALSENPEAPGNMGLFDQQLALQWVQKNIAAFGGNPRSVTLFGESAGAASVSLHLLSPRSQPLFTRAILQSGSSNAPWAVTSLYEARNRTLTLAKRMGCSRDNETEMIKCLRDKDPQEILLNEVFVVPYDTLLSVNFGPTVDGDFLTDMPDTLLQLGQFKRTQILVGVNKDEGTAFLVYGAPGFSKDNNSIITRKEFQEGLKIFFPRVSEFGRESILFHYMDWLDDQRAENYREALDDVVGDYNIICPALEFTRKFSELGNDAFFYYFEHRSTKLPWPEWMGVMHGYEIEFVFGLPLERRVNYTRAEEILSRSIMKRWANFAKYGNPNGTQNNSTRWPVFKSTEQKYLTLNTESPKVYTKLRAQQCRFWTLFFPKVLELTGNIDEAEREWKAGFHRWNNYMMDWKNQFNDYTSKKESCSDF
Acetylcholinesterase (Electrophorus electricus), sequence (O42275 24-633 limits assumed): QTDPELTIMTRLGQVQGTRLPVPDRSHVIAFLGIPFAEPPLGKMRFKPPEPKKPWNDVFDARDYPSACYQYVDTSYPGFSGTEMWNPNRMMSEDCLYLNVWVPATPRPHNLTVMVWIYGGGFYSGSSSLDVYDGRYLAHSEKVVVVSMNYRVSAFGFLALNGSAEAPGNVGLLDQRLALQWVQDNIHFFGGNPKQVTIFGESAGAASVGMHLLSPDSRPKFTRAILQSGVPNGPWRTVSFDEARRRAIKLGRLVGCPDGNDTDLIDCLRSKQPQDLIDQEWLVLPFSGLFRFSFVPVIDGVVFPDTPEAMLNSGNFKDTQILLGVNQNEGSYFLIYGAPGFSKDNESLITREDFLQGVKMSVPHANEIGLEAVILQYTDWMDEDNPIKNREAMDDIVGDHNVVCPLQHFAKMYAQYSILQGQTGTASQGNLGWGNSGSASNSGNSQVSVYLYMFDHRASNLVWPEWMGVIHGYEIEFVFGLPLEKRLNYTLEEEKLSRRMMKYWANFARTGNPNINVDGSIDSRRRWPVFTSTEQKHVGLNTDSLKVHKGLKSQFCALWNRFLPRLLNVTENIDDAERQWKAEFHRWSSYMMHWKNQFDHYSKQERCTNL
Cholinesterase (Equus caballus), sequence (P81908 whole entry): as the sequence (P81908 whole entry) above

Cc1ccccc1-n1c(C)nc2c(OCc3nnn(C(=O)c4ccc(N)cc4)n3)cccc2c1=O
ED50 (Rattus norvegicus [1]): 10.9 mg/kg
ED50 (Rattus norvegicus [2]): 48.4 mg/kg

O=C(CCCSc1nnnn1-c1ccccc1)N/N=C/c1cccc([N+](=O)[O-])c1
IC50 (Acetylcholinesterase [3]): 42500 nM

Cc1cccc(-n2c(=O)c3ccccc3n3nnnc23)c1
Time (Mus musculus [4]): 16.5 s

Clc1ccc(C(c2ccccc2)c2nnnn2CCCCN2CCC(Cc3ccccc3)CC2)cc1 (configuration not stated)
inhibition at 1 µM [5]: 88.9%
inhibition at 1 µM [6]: 58.9%
inhibition at 1 µM [7]: 67.8%
IC50 [8]: 90 nM
IC50 [9]: 780 nM
IC50 [10]: 550 nM

COc1ccc2c3c1O[C@H]1C[C@@H](O)C=C[C@@]31CCN(C)C2 [GALANTAMINE]
IC50 at 24 h ([11]; NIH/3T3 cells): 7280 nM

COc1cc2c(cc1OC)C(=O)C(CC1CCN(Cc3ccccc3)CC1)C2 (configuration not stated) [DONEPEZIL]
IC50 at 24 h ([11]; nih3t3): 1260 nM

Clc1ccccc1-c1nnn[nH]1
ED50 (Mus musculus [12]): 83.3 mg/kg

O=[N+]([O-])c1cccc(/C=N/NCCCCc2nnnn2-c2ccccc2)c1
inhibition [13]: 98.5%
IC50 at 24 h ([11]; NIH/3T3 cells): 51.7 µg/mL

COc1ccccc1C1=C(C#N)/C(=C(/C#N)c2nnn[nH]2)NC(C)(c2ccccc2OC)C1 (configuration not stated)
IC50 (Acetylcholinesterase [14]): 19300 nM
IC50 (Cholinesterase): 290 nM

Cc1ccccc1Cn1nnnc1-c1ccccc1C
ED50 (Mus musculus [15]): 12.7 mg/kg
TD50 [16]: 500 mg/kg

FC(F)(F)c1cccc(C2Cc3nnnn3-c3ccsc32)c1 (configuration not stated)
Time (Mus musculus [17]): 73.63 s

O=C(CCCSc1nnnn1-c1ccccc1)N/N=C/c1ccccc1[N+](=O)[O-]
IC50 (Acetylcholinesterase [3]): 54700 nM

CCCCCOc1nc2nnnn2c2ccccc12
Time (Mus musculus [18]): 112.3 s

COc1ccc(C2Cc3nnnn3-c3ccsc32)cc1 (configuration not stated)
ED50 (Mus musculus [15]): 44 mg/kg
ED50 (Mus musculus [19]): 65.5 mg/kg

FC(F)(F)c1ccccc1C1Cc2nnnn2-c2ccsc21 (configuration not stated)
ED50 (Mus musculus [15]): 19 mg/kg
ED50 (Mus musculus [19]): 26.2 mg/kg
Time (Mus musculus [17]): 68.43 s

O=[N+]([O-])c1ccccc1/C=N/NCCCCc1nnnn1-c1ccccc1
inhibition [13]: 92%
IC50 at 24 h ([11]; NIH/3T3 cells): 55 µg/mL

CNCCC(Oc1ccc(C(F)(F)F)cc1)c1ccccc1 (configuration not stated) [FLUOXETINE]
Time (Mus musculus [4]): 17.83 s
Time (Mus musculus [17]): 54.21 s
Time (Mus musculus [18]): 61.3 s

Cc1ccccc1-n1nnnc1S[C@H]1Cc2ccccc2C1=O
IC50 (Acetylcholinesterase [20]): 7560 nM

Clc1ccc(C2Cc3nnnn3-c3ccsc32)cc1 (configuration not stated)
ED50 (Mus musculus [15]): 9.5 mg/kg
ED50 (Mus musculus [19]): 20.5 mg/kg

Cc1ccccc1-n1c(C)nc2c(OCc3nnn(S(=O)(=O)c4ccc(N)cc4)n3)cccc2c1=O
ED50 (Rattus norvegicus [1]): 4.93 mg/kg
ED50 (Rattus norvegicus [2]): 72.3 mg/kg

CCCCCCOc1nc2nnnn2c2ccccc12
Time (Mus musculus [18]): 62.2 s

FC(F)(F)c1ccc(C2Cc3nnnn3-c3ccsc32)cc1 (configuration not stated)
ED50 (Mus musculus [15]): 23.4 mg/kg
ED50 (Mus musculus [19]): 64.7 mg/kg
Time (Mus musculus [17]): 51.43 s

O=C1c2ccccc2C[C@@H]1Sc1nnnn1-c1ccccc1F
IC50 (Acetylcholinesterase [20]): 4040 nM

COc1ccc(Oc2nc3nnnn3c3ccccc23)cc1
Time (Mus musculus [18]): 85.2 s

CN(C)C(=O)Oc1cccc([N+](C)(C)C)c1 [NEOSTIGMINE]
IC50 (Acetylcholinesterase [14]): 19 nM
IC50 (Cholinesterase): 8410 nM

Cc1ccc(-n2c(=O)c3ccccc3n3nnnc23)cc1
Time (Mus musculus [4]): 11.83 s

NC(=O)N1c2ccccc2C=Cc2ccccc21 [CARBAMAZEPINE]
ED50 (Mus musculus [15]): 11.8 mg/kg
ED50 (Mus musculus [21]): 27.3 mg/kg

Clc1ccc(Oc2nn3nnnc3c3ccccc23)cc1
ED50 (Mus musculus [22]): 6.8 mg/kg
TD50 at 0.25 h [23]: 456 mg/kg
selectivity ratio [24]: 67.1
ED50 (Mus musculus [21]): 24 mg/kg

O=C1c2ccccc2C[C@@H]1Sc1nnnn1-c1cccc(F)c1
IC50 (Acetylcholinesterase [20]): 2630 nM

Fc1ccc(C(c2ccc(F)cc2)c2nnnn2CCCCN2CCC(Cc3ccccc3)CC2)cc1
inhibition at 1 µM [5]: 77.6%
inhibition at 1 µM [6]: 81%
inhibition at 1 µM [7]: 92.3%
IC50 [8]: 453 nM
IC50 [9]: 298 nM
IC50 [10]: 58 nM

O=C1c2ccccc2C[C@@H]1Sc1nnnn1-c1ccc(F)cc1
IC50 (Acetylcholinesterase [20]): 3040 nM

NC(=O)O[C@@H](Cn1ncnn1)c1ccccc1Cl [CENOBAMATE]
ED50 (Mus musculus [22]): 9.8 mg/kg
ED50 (Mus musculus [25]): 28.5 mg/kg

O=C1c2ccccc2C[C@@H]1Sc1nnnn1-c1cccc([N+](=O)[O-])c1
IC50 (Acetylcholinesterase [20]): 2860 nM

Cc1ccccc1-c1nnnn1Cc1cccc(F)c1
ED50 (Mus musculus [15]): 39.9 mg/kg
TD50 [16]: 450 mg/kg

Cc1ccccc1-n1c(C)nc2c(OCc3nnn(Cc4ccc(-c5ccncc5)cc4)n3)cccc2c1=O
ED50 (Rattus norvegicus [1]): 12.9 mg/kg
ED50 (Rattus norvegicus [2]): > 100 mg/kg

Oc1cccc(/C=N/NCCCCc2nnnn2-c2ccccc2)c1
inhibition [26]: 51.3%

Cc1ccccc1-c1nn[nH]n1
selectivity ratio [24]: 19.7
ED50 (Mus musculus [27]): 9.6 mg/kg
TD50 [28]: 190 mg/kg

O=C1c2ccccc2C[C@@H]1Sc1nnnn1-c1ccc([N+](=O)[O-])cc1
IC50 (Acetylcholinesterase [20]): 6670 nM

CCC1(C)CC(=O)NC1=O (configuration not stated) [ETHOSUXIMIDE]
ED50 (Mus musculus [19]): 106 mg/kg
ED50 (Rattus norvegicus [1]): > 500 mg/kg
ED50 (Rattus norvegicus [2]): 167 mg/kg

CC1(c2ccc(F)cc2)CC(c2ccc(F)cc2)=C(C#N)/C(=C(/C#N)c2nnn[nH]2)N1 (configuration not stated)
IC50 (Acetylcholinesterase [14]): 2010 nM
IC50 (Cholinesterase): 38800 nM

O=C(CCCSc1nnnn1-c1ccccc1)N/N=C/c1cccc(O)c1
IC50 at 24 h ([11]; NIH/3T3 cells): 105000 nM
IC50 (Acetylcholinesterase [3]): 76500 nM

O=c1c2ccccc2n2nnnc2n1-c1ccccc1F
Time (Mus musculus [4]): 14.67 s

O=C1NC(=O)C(c2ccccc2)(c2ccccc2)N1 [PHENYTOIN]
ED50 (Rattus norvegicus [1]): 28.1 mg/kg
ED50 (Rattus norvegicus [2]): > 500 mg/kg
